From patent US12459951B2, “Compounds that interact with RAS superfamily proteins for treatment of cancers, inflammatory diseases, rasopathies, and fibrotic disease” (SHY Therapeutics, LLC, priority 2022, dated 2025)

Legend:
[1] = molecular target: T1, Rheb (Homo sapiens, UniProt Q15382); test: Rheb GTP Binding Domain Inhibition Assay; settings: read-out: Rheb: % inh.
T1 construct: made in house
In short: (§1)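 His-tagged cdc42 or Rheb (10–30 μg/mL) bound to nickel plates, then exposed to compound (20 μM, or serial dilutions for IC50) in 1% DMSO for 3 h at room temperature, ±Sos during final hour. Cy3- or Cy5-GTP (100 nM) added for 45 min; bound labelled GTP read by fluorescence after washes.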

[2] = molecular target: T2, cdc42 (Homo sapiens, UniProt P60953); test: Cdc42 GTP Binding Domain Inhibition Assay; settings: read-out: Cdc42: % inh.
T2 construct: made in house
T2 sequence (P60953 whole entry, the tested form may be a part): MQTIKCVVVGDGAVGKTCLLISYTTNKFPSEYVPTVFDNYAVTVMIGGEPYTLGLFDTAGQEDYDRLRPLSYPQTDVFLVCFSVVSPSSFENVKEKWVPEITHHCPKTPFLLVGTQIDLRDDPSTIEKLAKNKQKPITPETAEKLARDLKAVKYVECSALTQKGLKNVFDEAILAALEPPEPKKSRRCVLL
In short: as §1

[3] = system: A375 (wild type Kras); test: Proliferation Assay (Cell Viability Assay); assay type: cell-based; settings: Homo sapiens, A-375; Proliferation assay, A375; read-out: A375 IC50 (nM) Melanoma
In short: (§2)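 Cells plated at 2000–5000/well overnight, then treated 2–4 days at 37 °C, 5% CO2 with compound at 10 μM single dose or serial dilutions for IC50, in 0.3% DMSO and 10% FBS. Viability read by CellTiter 96 Aqueous One (MTS); % proliferation inhibition calculated from raw data.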

[4] = system: BT-549 (expressing wild type KRAS); test: Proliferation Assay (Cell Viability Assay); assay type: cell-based; settings: Homo sapiens, BT-549; Proliferation assay, BT549; read-out: BT549 IC50 (nM) TNBC
In short: as §2

[5] = system: NCI-H358 (expressing KRas G12C mutant); test: Proliferation Assay (Cell Viability Assay); assay type: cell-based; settings: Homo sapiens; Proliferation assay, NCI-H358; read-out: NCI-H358 IC50 (nM) NSCLC
In short: as §2

T1 sequence (Q15382 whole entry, the tested form may be a part): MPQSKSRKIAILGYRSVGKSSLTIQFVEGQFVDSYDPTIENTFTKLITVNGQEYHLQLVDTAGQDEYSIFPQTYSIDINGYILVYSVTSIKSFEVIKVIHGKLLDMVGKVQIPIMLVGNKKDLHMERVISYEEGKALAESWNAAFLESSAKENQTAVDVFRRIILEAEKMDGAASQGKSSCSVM

inhibition at 20 µM [1] [%] | inhibition at 20 µM [2] [%] | IC50 [3] [nM] | IC50 [4] [nM] | IC50 [5] [nM] | SMILES
26 to 49 | 1 to 25 | – | – | – | COc1cccc(-c2cn3nc(-c4nccn4C)nc(N[C@@H]4CC[C@@H](OC)C4)c3c2-c2ccccc2)c1Cl.Cl (racemic) [Compound 34, rac 6-(2-Chloro-3-methoxyphenyl)-N-((1R,3R)-3-methoxycyclopentyl)-2-(1-methyl-1H-imidazol-2-yl)-5-phenylpyrrolo[2,1-f][1,2,4]triazin-4-amine hydrochloride]
1 to 25 | 1 to 25 | – | – | – | Cc1c(-c2ccn(C(C)C)n2)cn2nc(-c3nccn3C)nc(Nc3noc(C4CC4)n3)c12 [Compound 75, 5-Cyclopropyl-N-(6-(1-isopropyl-1H-pyrazol-3-yl)-5-methyl-2-(1-methyl-1H-imidazol-2-yl)pyrrolo[2,1-f][1,2,4]triazin-4-yl)-1,2,4-oxadiazol-3-amine]
– | – | 1 to 10 | 1 to 10 | 1 to 10 | Cc1c(-c2ccn(C(C)C)n2)cn2nc(-c3nccn3C)nc(Nc3ccn(C4CC4)n3)c12 [Compound 84, N-(1-Cyclopropyl-1H-pyrazol-3-yl)-6-(1-isopropyl-1H-pyrazol-3-yl)-5-methyl-2-(1-methyl-1H-imidazol-2-yl)pyrrolo[2,1-f][1,2,4]triazin-4-amine]
– | – | 1 to 10 | 1 to 10 | 1 to 10 | Cc1c(-c2ccn(C(C)C)n2)cn2nc(-c3nccn3C)nc(Nc3cc4n(n3)CCO4)c12 [Compound 91, N-(6-(1-Isopropyl-1H-pyrazol-3-yl)-5-methyl-2-(1-methyl-1H-imidazol-2-yl)pyrrolo[2,1-f][1,2,4]triazin-4-yl)-2,3-dihydropyrazolo[5,1-b]oxazol-6-amine]
0 | 1 to 25 | – | – | – | COCCO[C@H]1C[C@H](Nc2nc(-c3nccn3C)nn3cc(-c4ccn(C(C)C)n4)c(C)c23)C1 [Compound 92, 6-(1-Isopropyl-1H-pyrazol-3-yl)-N-((1r,3r)-3-(2-methoxyethoxy)cyclobutyl)-5-methyl-2-(1-methyl-1H-imidazol-2-yl)pyrrolo[2,1-f][1,2,4]triazin-4-amine]
